Assay results reported in ChEMBL document CHEMBL5055685, “Discovery of the First Potent IDO1/IDO2 Dual Inhibitors: A Promising Strategy for Cancer Immunotherapy” (J Med Chem, 2021).
pIC50: −log10 of the molar value. Activity calls are given as the source filed them. The rule behind the calls is not given here.

What was measured:
[1] = biological target: Serine/threonine-protein kinase Sgk2 (Homo sapiens) (UniProt Q9HBY8); experiment: Inhibition of SGK2 (unknown origin) at 1 uM
Homo sapiens [2] = species on record: Homo sapiens; experiment: Inhibition of PKG2 (unknown origin) at 1 uM
[3] = biological target: Cyclin-dependent kinase 1/cyclin B1 (Homo sapiens) (UniProt P06493+P14635); experiment: Inhibition of CDK1/cyclinB (unknown origin) at 1 uM; format: protein-complex assay
[4] = Clearance in mouse liver microsomes; format: ADME, Microsome; settings: read-out: CLH
[5] = biological target: Cytoplasmic tyrosine-protein kinase BMX (Homo sapiens) (UniProt P51813); experiment: Inhibition of BMX (unknown origin) at 1 uM
[6] = biological target: Fibroblast growth factor receptor 4 (Homo sapiens) (UniProt P22455); experiment: Inhibition of FGFR4 (unknown origin) at 1 uM
[7] = biological target: Tyrosine-protein kinase Mer (Homo sapiens) (UniProt Q12866); experiment: Inhibition of c-MER (unknown origin) at 1 uM
[8] = biological target: Serine/threonine-protein kinase OSR1 (Homo sapiens) (UniProt O95747); experiment: Inhibition of OSR1 (unknown origin) at 1 uM
[9] = biological target: Indoleamine 2,3-dioxygenase 1 (Homo sapiens, UniProt P14902); experiment: Inhibition of IDO1 (unknown origin) assessed as reduction in kynurenine formation using L-tryptophan as substrate by methylene blue reagent based assay
[10] = biological target: Tau-tubulin kinase 2 (Homo sapiens) (UniProt Q6IQ55); experiment: Inhibition of TTBK2 (unknown origin) at 1 uM
HCT-116 [11] = experiment: Antitumor immunity in BALB/c mouse xenografted with human HCT-116 cells assessed as early Treg cells in tumor-draining lymph nodes by propidium iodide staining based flow cytometry analysis (reference value: 7.24 %); format: functional
[12] = biological target: Myosin-IIIa (Homo sapiens) (UniProt Q8NEV4); experiment: Inhibition of MYO3A (unknown origin) at 1 uM
[13] = biological target: CDK9/cyclin T1 (Homo sapiens) (UniProt O60563+P50750); experiment: Inhibition of CDK9/cyclin-T1 (unknown origin) at 1 uM; format: protein-complex assay
[14] = biological target: Mitogen-activated protein kinase kinase kinase kinase 4 (Homo sapiens) (UniProt O95819); experiment: Inhibition of HGK (unknown origin) at 1 uM
[15] = biological target: Mitogen-activated protein kinase 12 (Homo sapiens) (UniProt P53778); experiment: Inhibition of p38gamma (unknown origin) at 1 uM
[16] = biological target: Protein kinase C beta type (Homo sapiens) (UniProt P05771); experiment: Inhibition of PKCb1 (unknown origin) at 1 uM
[17] = biological target: Tyrosine-protein kinase ZAP-70 (Homo sapiens) (UniProt P43403); experiment: Inhibition of ZAP70 (unknown origin) at 1 uM
[18] = biological target: CDK9/Cyclin K (Homo sapiens) (UniProt P50750+O75909); experiment: Inhibition of CDK9/cyclin-K (unknown origin) at 1 uM; format: protein-complex assay
[19] = biological target: Indoleamine 2,3-dioxygenase 1 (Mus musculus) (UniProt P28776); experiment: In vivo inhibition of IDO1 in BALB/c mouse xenografted with human HCT-116 cells assessed as suppression of IDO1 expression in tumor by immunohistochemical assay; format: functional, organism-based
[20] = biological target: Serine/threonine-protein kinase pim-2 (Homo sapiens) (UniProt Q9P1W9); experiment: Inhibition of PIM2 (unknown origin) at 1 uM
[21] = biological target: Casein kinase II subunit alpha (Homo sapiens) (UniProt P68400); experiment: Inhibition of CK2A (unknown origin) at 1 uM
[22] = Intrinsic clearance in human liver microsomes; format: ADME, Microsome; settings: read-out: CLH
[23] = Protein binding in Sprague-Dawley rat plasma assessed as fraction unbound by equilibrium dialysis; format: ADME, cell-free
[24] = biological target: Casein kinase I isoform delta (Homo sapiens) (UniProt P48730); experiment: Inhibition of CK1D (unknown origin) at 1 uM
Homo sapiens [25] = species on record: Homo sapiens; experiment: Inhibition of MLCK (unknown origin) at 1 uM
[26] = biological target: Aurora kinase A (Homo sapiens) (UniProt O14965); experiment: Inhibition of Aurora A (unknown origin) at 1 uM
[27] = biological target: Homeodomain-interacting protein kinase 3 (Homo sapiens) (UniProt Q9H422); experiment: Inhibition of HIPK3 (unknown origin) at 1 uM
[28] = biological target: Ephrin type-B receptor 4 (Homo sapiens) (UniProt P54760); experiment: Inhibition of EPHB4 (unknown origin) at 1 uM
[29] = biological target: Casein kinase I isoform gamma-1 (Homo sapiens) (UniProt Q9HCP0); experiment: Inhibition of CK1gamma1 (unknown origin) at 1 uM
[30] = biological target: Mitogen-activated protein kinase kinase kinase kinase 3 (Homo sapiens) (UniProt Q8IVH8); experiment: Inhibition of GLK (unknown origin) at 1 uM
[31] = biological target: CDC7/DBF4 (Cell division cycle 7-related protein kinase/Activator of S phase kinase) (Homo sapiens) (UniProt Q9UBU7+O00311); experiment: Inhibition of CDC7/DBF4 (unknown origin) at 1 uM; format: protein-complex assay
[32] = biological target: Calcium/calmodulin-dependent protein kinase type 1G (Homo sapiens) (UniProt Q96NX5); experiment: Inhibition of CAMK1G (unknown origin) at 1 uM
[33] = biological target: Serine/threonine-protein kinase N3 (Homo sapiens) (UniProt Q6P5Z2); experiment: Inhibition of PKN3 (unknown origin) at 1 uM
[34] = AUC (0 to t) in Sprague-Dawley rat at 5 mg/kg, iv; format: ADME, organism-based; set-up: dose 5 mg/kg, route iv; settings: in vivo
[35] = biological target: Proto-oncogene tyrosine-protein kinase Src (Homo sapiens) (UniProt P12931); experiment: Inhibition of c-SRC (unknown origin) at 1 uM
[36] = biological target: Serine/threonine-protein kinase DCLK2 (Homo sapiens) (UniProt Q8N568); experiment: Inhibition of DCAMKL2 (unknown origin) at 1 uM
[37] = biological target: Serine/threonine-protein kinase DCLK1 (Homo sapiens) (UniProt O15075); experiment: Inhibition of DCAMKL1 (unknown origin) at 1 uM
[38] = biological target: MAP kinase-activated protein kinase 3 (Homo sapiens) (UniProt Q16644); experiment: Inhibition of MAPKAPK3 (unknown origin) at 1 uM
[39] = biological target: Serine/threonine-protein kinase D1 (Homo sapiens) (UniProt Q15139); experiment: Inhibition of PKCmu (unknown origin) at 1 uM
HCT-116 [40] = experiment: Antitumor immunity in BALB/c mouse xenografted with human HCT-116 cells assessed as live Treg cells in tumor-draining lymph nodes by propidium iodide staining based flow cytometry analysis (reference value: 70.6 %); format: functional
[41] = biological target: Tyrosine-protein kinase Blk (Homo sapiens) (UniProt P51451); experiment: Inhibition of BLK (unknown origin) at 1 uM
[42] = biological target: 3-phosphoinositide-dependent protein kinase 1 (Homo sapiens) (UniProt O15530); experiment: Inhibition of PDK1 (unknown origin) at 1 uM
[43] = biological target: Proto-oncogene tyrosine-protein kinase receptor Ret (Homo sapiens) (UniProt P07949); experiment: Inhibition of RET (unknown origin) at 1 uM

Chain of Mitogen-activated protein kinase 12 (Homo sapiens) (P53778 whole entry): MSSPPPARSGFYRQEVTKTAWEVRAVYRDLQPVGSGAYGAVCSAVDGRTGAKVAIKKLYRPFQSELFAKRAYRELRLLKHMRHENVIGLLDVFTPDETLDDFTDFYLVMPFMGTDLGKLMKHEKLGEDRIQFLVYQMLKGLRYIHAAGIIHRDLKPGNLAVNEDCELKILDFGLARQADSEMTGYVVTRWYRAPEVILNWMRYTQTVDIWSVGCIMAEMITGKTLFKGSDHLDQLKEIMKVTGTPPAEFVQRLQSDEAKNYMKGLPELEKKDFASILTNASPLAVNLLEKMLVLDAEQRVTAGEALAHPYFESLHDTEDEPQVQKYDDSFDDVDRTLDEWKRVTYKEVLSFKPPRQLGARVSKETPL
Chain of Casein kinase II subunit alpha (Homo sapiens) (P68400 whole entry, looked up): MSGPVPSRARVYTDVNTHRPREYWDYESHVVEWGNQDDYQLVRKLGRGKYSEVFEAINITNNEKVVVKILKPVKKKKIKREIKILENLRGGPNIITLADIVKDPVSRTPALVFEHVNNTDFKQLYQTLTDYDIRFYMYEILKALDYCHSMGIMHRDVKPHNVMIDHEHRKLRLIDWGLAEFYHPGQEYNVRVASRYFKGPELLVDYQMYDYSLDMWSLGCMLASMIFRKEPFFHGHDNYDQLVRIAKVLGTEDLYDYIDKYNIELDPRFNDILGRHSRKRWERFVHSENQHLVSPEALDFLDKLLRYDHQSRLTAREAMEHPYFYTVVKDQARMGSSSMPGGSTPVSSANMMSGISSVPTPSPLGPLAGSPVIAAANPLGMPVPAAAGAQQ
Chain of Tyrosine-protein kinase Blk (Homo sapiens) (P51451 2-505 limits assumed): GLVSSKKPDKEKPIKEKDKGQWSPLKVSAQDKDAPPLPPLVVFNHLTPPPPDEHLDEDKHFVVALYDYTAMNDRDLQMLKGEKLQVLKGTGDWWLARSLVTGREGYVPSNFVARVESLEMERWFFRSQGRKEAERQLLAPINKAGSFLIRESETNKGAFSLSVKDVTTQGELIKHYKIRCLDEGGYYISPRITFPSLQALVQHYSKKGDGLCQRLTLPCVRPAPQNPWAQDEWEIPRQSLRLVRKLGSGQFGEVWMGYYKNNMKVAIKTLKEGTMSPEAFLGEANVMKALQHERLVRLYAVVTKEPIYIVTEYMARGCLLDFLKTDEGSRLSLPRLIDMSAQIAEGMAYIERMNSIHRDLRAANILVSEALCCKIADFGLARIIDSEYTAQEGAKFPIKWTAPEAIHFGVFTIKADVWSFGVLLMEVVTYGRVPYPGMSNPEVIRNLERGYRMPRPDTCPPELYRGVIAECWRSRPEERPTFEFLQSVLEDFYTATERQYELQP
Chain of Protein kinase C beta type (Homo sapiens) (P05771 2-671 limits assumed): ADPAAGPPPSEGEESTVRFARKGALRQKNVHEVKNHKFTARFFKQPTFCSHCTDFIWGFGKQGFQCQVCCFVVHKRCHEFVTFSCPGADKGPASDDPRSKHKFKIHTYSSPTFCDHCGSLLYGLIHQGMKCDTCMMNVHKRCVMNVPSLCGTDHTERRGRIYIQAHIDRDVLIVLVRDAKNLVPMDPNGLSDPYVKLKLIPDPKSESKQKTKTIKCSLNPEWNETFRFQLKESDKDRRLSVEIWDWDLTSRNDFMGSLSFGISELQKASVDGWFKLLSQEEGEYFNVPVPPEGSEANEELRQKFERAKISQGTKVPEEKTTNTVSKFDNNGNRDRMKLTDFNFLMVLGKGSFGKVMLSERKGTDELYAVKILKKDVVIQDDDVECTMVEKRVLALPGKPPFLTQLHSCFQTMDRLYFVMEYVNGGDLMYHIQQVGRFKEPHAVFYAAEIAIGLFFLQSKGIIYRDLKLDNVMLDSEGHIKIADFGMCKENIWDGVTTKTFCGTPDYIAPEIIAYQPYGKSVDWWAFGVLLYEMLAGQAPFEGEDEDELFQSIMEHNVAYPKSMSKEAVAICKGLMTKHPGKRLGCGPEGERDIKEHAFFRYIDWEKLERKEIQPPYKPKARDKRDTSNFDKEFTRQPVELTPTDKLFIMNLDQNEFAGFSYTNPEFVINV
Chain of Serine/threonine-protein kinase OSR1 (Homo sapiens) (O95747 whole entry, looked up): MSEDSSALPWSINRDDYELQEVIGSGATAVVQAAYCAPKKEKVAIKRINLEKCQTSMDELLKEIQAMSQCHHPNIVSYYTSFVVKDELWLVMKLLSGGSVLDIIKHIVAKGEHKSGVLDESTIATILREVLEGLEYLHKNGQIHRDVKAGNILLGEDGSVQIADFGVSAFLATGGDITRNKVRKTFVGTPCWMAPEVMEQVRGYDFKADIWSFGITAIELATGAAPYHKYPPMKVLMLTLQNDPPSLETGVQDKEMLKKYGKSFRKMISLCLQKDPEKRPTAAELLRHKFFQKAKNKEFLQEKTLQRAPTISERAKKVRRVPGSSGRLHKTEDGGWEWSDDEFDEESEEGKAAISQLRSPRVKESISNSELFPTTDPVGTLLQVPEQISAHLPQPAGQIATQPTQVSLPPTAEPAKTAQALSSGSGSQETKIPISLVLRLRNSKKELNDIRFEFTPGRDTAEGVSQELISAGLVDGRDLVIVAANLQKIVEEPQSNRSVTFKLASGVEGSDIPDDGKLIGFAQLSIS
Chain of Serine/threonine-protein kinase D1 (Homo sapiens) (Q15139 whole entry): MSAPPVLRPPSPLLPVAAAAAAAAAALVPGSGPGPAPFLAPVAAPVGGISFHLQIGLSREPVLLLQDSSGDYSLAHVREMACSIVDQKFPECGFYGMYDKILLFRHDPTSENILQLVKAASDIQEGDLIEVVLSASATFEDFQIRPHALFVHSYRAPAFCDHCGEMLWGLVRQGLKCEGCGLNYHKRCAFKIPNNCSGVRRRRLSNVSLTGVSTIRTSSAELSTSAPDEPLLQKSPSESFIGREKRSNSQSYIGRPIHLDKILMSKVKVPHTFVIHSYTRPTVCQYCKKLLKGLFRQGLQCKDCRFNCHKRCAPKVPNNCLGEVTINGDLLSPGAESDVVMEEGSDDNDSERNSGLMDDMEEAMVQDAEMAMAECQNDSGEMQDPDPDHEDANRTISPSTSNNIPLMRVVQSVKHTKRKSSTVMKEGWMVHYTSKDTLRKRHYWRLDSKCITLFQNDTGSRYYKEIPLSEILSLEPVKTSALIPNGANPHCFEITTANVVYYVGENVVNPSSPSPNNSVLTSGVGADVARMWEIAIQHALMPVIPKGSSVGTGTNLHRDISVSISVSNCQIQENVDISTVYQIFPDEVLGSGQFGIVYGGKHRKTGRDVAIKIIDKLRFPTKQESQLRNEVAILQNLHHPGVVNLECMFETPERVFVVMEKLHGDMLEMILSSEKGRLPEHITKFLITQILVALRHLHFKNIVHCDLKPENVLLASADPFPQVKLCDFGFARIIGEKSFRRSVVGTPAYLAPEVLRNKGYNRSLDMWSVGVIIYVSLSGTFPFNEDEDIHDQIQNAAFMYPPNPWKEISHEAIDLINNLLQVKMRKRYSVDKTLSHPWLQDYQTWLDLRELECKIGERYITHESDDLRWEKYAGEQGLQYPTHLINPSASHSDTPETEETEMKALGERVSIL
Chain of Casein kinase I isoform gamma-1 (Homo sapiens) (Q9HCP0 whole entry, looked up, canonical isoform): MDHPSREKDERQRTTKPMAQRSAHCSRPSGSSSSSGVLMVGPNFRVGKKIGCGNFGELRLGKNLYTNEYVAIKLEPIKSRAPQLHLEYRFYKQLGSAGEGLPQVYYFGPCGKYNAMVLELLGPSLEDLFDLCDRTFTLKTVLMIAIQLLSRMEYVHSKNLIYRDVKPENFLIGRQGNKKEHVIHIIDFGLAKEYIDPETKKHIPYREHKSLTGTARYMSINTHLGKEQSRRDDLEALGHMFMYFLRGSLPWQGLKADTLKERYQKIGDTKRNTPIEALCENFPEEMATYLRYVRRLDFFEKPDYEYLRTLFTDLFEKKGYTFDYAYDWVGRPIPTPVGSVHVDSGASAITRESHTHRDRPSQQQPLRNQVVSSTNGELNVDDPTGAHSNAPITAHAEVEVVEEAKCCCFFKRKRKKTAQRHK
Chain of Tau-tubulin kinase 2 (Homo sapiens) (Q6IQ55 whole entry): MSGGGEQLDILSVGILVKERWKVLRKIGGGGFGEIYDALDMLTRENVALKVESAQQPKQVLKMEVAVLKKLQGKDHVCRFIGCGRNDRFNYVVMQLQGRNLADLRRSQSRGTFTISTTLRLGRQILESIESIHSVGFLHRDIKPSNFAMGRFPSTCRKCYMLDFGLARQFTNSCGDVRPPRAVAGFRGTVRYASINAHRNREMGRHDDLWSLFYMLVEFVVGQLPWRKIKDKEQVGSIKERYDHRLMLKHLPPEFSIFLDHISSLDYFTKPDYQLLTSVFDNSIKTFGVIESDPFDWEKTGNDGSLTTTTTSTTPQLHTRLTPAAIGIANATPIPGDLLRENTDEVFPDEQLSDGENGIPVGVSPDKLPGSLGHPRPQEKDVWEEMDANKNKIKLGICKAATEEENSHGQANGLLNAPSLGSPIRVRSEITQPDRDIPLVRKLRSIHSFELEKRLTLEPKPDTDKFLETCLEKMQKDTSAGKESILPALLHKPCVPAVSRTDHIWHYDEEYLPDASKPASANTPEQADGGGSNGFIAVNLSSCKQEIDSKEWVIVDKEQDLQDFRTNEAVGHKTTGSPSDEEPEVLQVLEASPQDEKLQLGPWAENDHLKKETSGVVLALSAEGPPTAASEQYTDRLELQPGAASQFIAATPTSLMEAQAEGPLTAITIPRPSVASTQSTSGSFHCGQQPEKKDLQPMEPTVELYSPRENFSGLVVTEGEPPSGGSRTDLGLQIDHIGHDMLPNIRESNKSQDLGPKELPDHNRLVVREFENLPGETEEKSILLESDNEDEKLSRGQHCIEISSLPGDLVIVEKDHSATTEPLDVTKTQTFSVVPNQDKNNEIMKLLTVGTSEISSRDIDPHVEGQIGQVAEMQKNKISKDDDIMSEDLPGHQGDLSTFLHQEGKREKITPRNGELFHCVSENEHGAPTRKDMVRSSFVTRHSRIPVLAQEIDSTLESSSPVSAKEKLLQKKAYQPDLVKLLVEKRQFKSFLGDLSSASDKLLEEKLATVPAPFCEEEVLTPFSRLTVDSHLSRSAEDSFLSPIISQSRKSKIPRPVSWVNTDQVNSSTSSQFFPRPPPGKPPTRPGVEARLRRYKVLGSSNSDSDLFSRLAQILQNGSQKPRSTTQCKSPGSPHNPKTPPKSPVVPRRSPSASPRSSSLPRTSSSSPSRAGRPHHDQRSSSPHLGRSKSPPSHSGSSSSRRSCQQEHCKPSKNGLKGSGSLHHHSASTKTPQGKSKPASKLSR

What does the source list for `OCCOCc1cn(CCNc2nonc2/C(=N/O)Nc2ccc(F)c(Br)c2)nn1`?
inhibition [1]: inactive; inhibition (Homo sapiens [2]): inactive; inhibition [3]: inactive; microsomal CLint [4]: 32.2 µL/min/mg; inhibition [5]: inactive; inhibition [6]: inactive; inhibition [7]: inactive; inhibition [8]: inactive; pIC50 [9]: 7.55; inhibition [10]: inactive; Activity (HCT-116 [11]): 3.84%; inhibition [12]: inactive; inhibition [13]: inactive; inhibition [14]: inactive; inhibition [15]: inactive; inhibition [16]: inactive; inhibition [17]: inactive; inhibition [18]: inactive; inhibition [19]: Active; inhibition [20]: inactive; inhibition [21]: inactive; microsomal CLint [22]: 30.1 µL/min/mg; fraction unbound [23]: 0.0672; inhibition [24]: inactive; inhibition (Homo sapiens [25]): inactive; inhibition [26]: inactive; inhibition [27]: inactive; inhibition [28]: inactive; inhibition [29]: inactive; inhibition [30]: inactive; inhibition [31]: inactive; inhibition [32]: inactive; inhibition [33]: inactive; AUC(0-t) [34]: 3040 ng·h/mL; inhibition [35]: inactive; inhibition [36]: inactive; inhibition [37]: inactive; inhibition [38]: inactive; inhibition [39]: inactive; Activity (HCT-116 [40]): 88.1%; inhibition [41]: inactive; inhibition [42]: inactive; inhibition [43]: inactive
